{"source": "paper PMC6856039", "about": "(Investigational New Drugs, 2019)", "key": {"[1]": {"procedure": "PK parameters were evaluated on Day 1 and Day 15.\nThe planned sample size was 300 patients maximum, including 54 patients in the dose escalation phase, seven patients at each level of the first stage of the expansion phase, 20 patients at each level in the second stage of the expansion phase, and in the extension phase, 100, 40, 20, and 10 patients in Cohorts A, B, C, and D, respectively. The main analysis sets in each study phase are defined in Supplementary Table 1 (Online Resource 3). Safety and efficacy data are summarized using descriptive statistics. PK parameters were calculated according to the non-compartmental method. ORR, DCR, and median PFS were calculated along with 95% CIs. The statistical software used to perform statistical analyses was SAS version 9.2 (SAS Inc., Cary, NC, USA, RRID: SCR_008567). For the PK analysis, Phoenix® WinNonlin® Ver. 6.3 and 6.4 (Certara, Princeton, NJ, USA) was used."}, "[2]": {"test_system": "T790M-positive NSCLC patients", "format": "in vivo, human", "settings": "for median PFS / Best overall response: Not evaluable / Best overall response: Partial response / Best overall response: Progression disease / Best overall response: Stable disease / Disease control rate / Objective response rate: T790M-positive", "text": "To assess the EGFR T790M mutation tumor status, mandatorily collected plasma from patients was processed, and isolated circulating cell-free DNA (cfDNA) was submitted for laboratory testing (Fluorescence Resonance Energy Transfer-based Preferential Formation Assay [F-PHFA] method) by central review. In some patients, collected tumor biopsies were submitted for EGFR genotyping (Therascreen® EGFR RGQ PCR kit [Qiagen, Venlo, Netherlands]).\nAntitumor efficacy was based on objective tumor assessments according to the Response Evaluation Criteria in Solid Tumors criteria (version 1.1, 2009). Computed tomography scans were performed at baseline, every 6 weeks after starting administration, and at the time of discontinuation. The ORR, DCR, and PFS at each phase were assessed according to dose level and regimen. ORR was defined as the proportion of patients in which the best overall response was determined to be CR or PR and was calculated in patients with measurable lesions. DCR was defined as the proportion of patients in which the best overall response was determined to be CR, PR, or stable disease. PFS was defined as the median time from enrollment to PD or death from any cause."}, "[3]": {"settings": "BID 8 mg/day, cycle 1, day 15, n = 9"}, "[4]": {"settings": "BID 12 mg/day, cycle 1, day 15, n = 4"}, "[5]": {"settings": "QD 4 mg/day, cycle 1, day 15, n = 3"}, "[6]": {"settings": "QD 8 mg/day, cycle 1, day 15, n = 9"}, "[7]": {"settings": "QD 10 mg/day, cycle 1, day 15, n = 7"}, "[8]": {"settings": "QD 12 mg/day, cycle 1, day 15, n = 2"}, "[9]": {"settings": "QD 16 mg/day, cycle 1, day 15, n = 1"}}, "note": "Where two headings read alike, the source gives them in different places. Marks after values point to notes of the source that are not given here.", "data": [{"smiles": "C=CC(=O)N[C@H]1CCc2c(-c3cnc4ccccc4c3)c3c(N)ncnc3n2C1", "note": "[TAS-121]", "values": [{"measurement": "AUC0-12h, mean (standard deviation)", "setting": "[1]; [3]", "value": "1520 (520) ng•h/mL"}, {"measurement": "Cmax, mean (standard deviation)", "setting": "[1]; [3]", "value": "290 (104) ng/mL"}, {"measurement": "T1/2, mean (standard deviation)", "setting": "[1]; [3]", "value": "5.11 (1.48) h"}, {"measurement": "Tmax, median (minimum–maximum)", "setting": "[1]; [3]", "value": "1.00 (0.50–1.00) h"}, {"measurement": "AUC0-12h, mean (standard deviation)", "setting": "[1]; [4]", "value": "5860 (1460) ng•h/mL"}, {"measurement": "Cmax, mean (standard deviation)", "setting": "[1]; [4]", "value": "772 (201) ng/mL"}, {"measurement": "T1/2, mean (standard deviation)", "setting": "[1]; [4]", "value": "8.84 (3.31) h"}, {"measurement": "Tmax, median (minimum–maximum)", "setting": "[1]; [4]", "value": "2.00 (1.00–3.00) h"}, {"measurement": "AUC0-24h, mean (standard deviation)", "setting": "[1]; [5]", "value": "2670 (1110) ng•h/mL"}, {"measurement": "Cmax, mean (standard deviation)", "setting": "[1]; [5]", "value": "304 (13) ng/mL"}, {"measurement": "T1/2, mean (standard deviation)", "setting": "[1]; [5]", "value": "8.83 (2.88) h"}, {"measurement": "Tmax, median (minimum–maximum)", "setting": "[1]; [5]", "value": "1.00 (1.00–1.00) h"}, {"measurement": "AUC0-24h, mean (standard deviation)", "setting": "[1]; [6]", "value": "4860 (2520) ng•h/mL"}, {"measurement": "Cmax, mean (standard deviation)", "setting": "[1]; [6]", "value": "569 (312) ng/mL"}, {"measurement": "T1/2, mean (standard deviation)", "setting": "[1]; [6]", "value": "8.60 (2.49) h"}, {"measurement": "Tmax, median (minimum–maximum)", "setting": "[1]; [6]", "value": "1.00 (0.50–2.00) h"}, {"measurement": "AUC0-24h, mean (standard deviation)", "setting": "[1]; [7]", "value": "8040 (4190) ng•h/mL"}, {"measurement": "Cmax, mean (standard deviation)", "setting": "[1]; [7]", "value": "900 (376) ng/mL"}, {"measurement": "T1/2, mean (standard deviation)", "setting": "[1]; [7]", "value": "8.61 (1.73) h"}, {"measurement": "Tmax, median (minimum–maximum)", "setting": "[1]; [7]", "value": "2.00 (0.75–4.00) h"}, {"measurement": "T1/2", "setting": "[1]; QD 12 mg/day, cycle 1, day 15, based on one patient", "value": "8.12 (NA)^b h"}, {"measurement": "AUC0-24h, mean", "setting": "[1]; [8]", "value": "9500 (NA) ng•h/mL"}, {"measurement": "Cmax, mean", "setting": "[1]; [8]", "value": "1180 (NA) ng/mL"}, {"measurement": "Tmax, median (minimum–maximum)", "setting": "[1]; [8]", "value": "1.12 (1.00–1.23) h"}, {"measurement": "AUC0-24h", "setting": "[1]; [9]", "value": "5870 (NA) ng•h/mL"}, {"measurement": "Cmax", "setting": "[1]; [9]", "value": "825 (NA) ng/mL"}, {"measurement": "T1/2", "setting": "[1]; [9]", "value": "6.44 (NA) h"}, {"measurement": "Tmax", "setting": "[1]; [9]", "value": "2.00 (NA) h"}, {"measurement": "objective response rate (ORR)", "setting": "[2]; T790M-positive patients with measurable lesions, n = 86, regardless of the dosage", "value": 28, "unit": "%"}, {"measurement": "objective response rate (ORR)", "setting": "[2]; T790M-positive patients, 8 mg/day BID", "value": 39, "unit": "%"}, {"measurement": "median PFS", "setting": "[2]; 4 mg/day QD, 23 patients/17 events", "value": 165, "unit": "days"}, {"measurement": "Best overall response: Not evaluable", "setting": "[2]; 4 mg/day QD, N = 15", "value": "1 (6.7) n (%)"}, {"measurement": "Best overall response: Partial response", "setting": "[2]; 4 mg/day QD, N = 15", "value": "4 (26.7) n (%)"}, {"measurement": "Best overall response: Progression disease", "setting": "[2]; 4 mg/day QD, N = 15", "value": "7 (46.7) n (%)"}, {"measurement": "Best overall response: Stable disease", "setting": "[2]; 4 mg/day QD, N = 15", "value": "3 (20.0) n (%)"}, {"measurement": "Disease control rate", "setting": "[2]; 4 mg/day QD, N = 15", "value": "7 (46.7) n (%)"}, {"measurement": "Objective response rate", "setting": "[2]; 4 mg/day QD, N = 15", "value": "4 (26.7) n (%)"}, {"measurement": "median PFS", "setting": "[2]; 8 mg/day BID, 36 patients/21 events", "value": 253, "unit": "days"}, {"measurement": "Best overall response: Not evaluable", "setting": "[2]; 8 mg/day BID, N = 33", "value": "1 (3.0) n (%)"}, {"measurement": "Best overall response: Partial response", "setting": "[2]; 8 mg/day BID, N = 33", "value": "13 (39.4) n (%)"}, {"measurement": "Best overall response: Progression disease", "setting": "[2]; 8 mg/day BID, N = 33", "value": "8 (24.2) n (%)"}, {"measurement": "Best overall response: Stable disease", "setting": "[2]; 8 mg/day BID, N = 33", "value": "11 (33.3) n (%)"}, {"measurement": "Disease control rate", "setting": "[2]; 8 mg/day BID, N = 33", "value": "24 (72.7) n (%)"}, {"measurement": "Objective response rate", "setting": "[2]; 8 mg/day BID, N = 33", "value": "13 (39.4) n (%)"}, {"measurement": "median PFS", "setting": "[2]; 8 mg/day QD, 33 patients/25 events", "value": 125, "unit": "days"}, {"measurement": "Best overall response: Not evaluable", "setting": "[2]; 8 mg/day QD, N = 28", "value": "0 (0.0) n (%)"}, {"measurement": "Best overall response: Partial response", "setting": "[2]; 8 mg/day QD, N = 28", "value": "6 (21.4) n (%)"}, {"measurement": "Best overall response: Progression disease", "setting": "[2]; 8 mg/day QD, N = 28", "value": "11 (39.3) n (%)"}, {"measurement": "Best overall response: Stable disease", "setting": "[2]; 8 mg/day QD, N = 28", "value": "11 (39.3) n (%)"}, {"measurement": "Disease control rate", "setting": "[2]; 8 mg/day QD, N = 28", "value": "17 (60.7) n (%)"}, {"measurement": "Objective response rate", "setting": "[2]; 8 mg/day QD, N = 28", "value": "6 (21.4) n (%)"}, {"measurement": "Best overall response: Not evaluable", "setting": "[2]; 10 mg/day QD, N = 7", "value": "0 (0.0) n (%)"}, {"measurement": "Best overall response: Partial response", "setting": "[2]; 10 mg/day QD, N = 7", "value": "1 (14.3) n (%)"}, {"measurement": "Best overall response: Progression disease", "setting": "[2]; 10 mg/day QD, N = 7", "value": "3 (42.9) n (%)"}, {"measurement": "Best overall response: Stable disease", "setting": "[2]; 10 mg/day QD, N = 7", "value": "3 (42.9) n (%)"}, {"measurement": "Disease control rate", "setting": "[2]; 10 mg/day QD, N = 7", "value": "4 (57.1) n (%)"}, {"measurement": "Objective response rate", "setting": "[2]; 10 mg/day QD, N = 7", "value": "1 (14.3) n (%)"}, {"measurement": "median PFS", "setting": "[2]; 10 mg/day QD, seven patients/three events", "value": 401, "unit": "days"}, {"measurement": "Best overall response: Not evaluable", "setting": "[2]; 12 mg/day BID, N = 3", "value": "1 (33.3) n (%)"}, {"measurement": "Best overall response: Partial response", "setting": "[2]; 12 mg/day BID, N = 3", "value": "0 (0.0) n (%)"}, {"measurement": "Best overall response: Progression disease", "setting": "[2]; 12 mg/day BID, N = 3", "value": "1 (33.3) n (%)"}, {"measurement": "Best overall response: Stable disease", "setting": "[2]; 12 mg/day BID, N = 3", "value": "1 (33.3) n (%)"}, {"measurement": "Disease control rate", "setting": "[2]; 12 mg/day BID, N = 3", "value": "1 (33.3) n (%)"}, {"measurement": "Objective response rate", "setting": "[2]; 12 mg/day BID, N = 3", "value": "0 (0.0) n (%)"}, {"measurement": "Best overall response: Not evaluable", "setting": "[2]; 12 mg/day QD, N = 1", "value": "0 (0.0) n (%)"}, {"measurement": "Best overall response: Partial response", "setting": "[2]; 12 mg/day QD, N = 1", "value": "0 (0.0) n (%)"}, {"measurement": "Best overall response: Progression disease", "setting": "[2]; 12 mg/day QD, N = 1", "value": "1 (100.0) n (%)"}, {"measurement": "Best overall response: Stable disease", "setting": "[2]; 12 mg/day QD, N = 1", "value": "0 (0.0) n (%)"}, {"measurement": "Disease control rate", "setting": "[2]; 12 mg/day QD, N = 1", "value": "0 (0.0) n (%)"}, {"measurement": "Objective response rate", "setting": "[2]; 12 mg/day QD, N = 1", "value": "0 (0.0) n (%)"}, {"measurement": "Best overall response: Not evaluable", "setting": "[2]; Total, N = 87", "value": "3 (3.4) n (%)"}, {"measurement": "Best overall response: Partial response", "setting": "[2]; Total, N = 87", "value": "24 (27.6) n (%)"}, {"measurement": "Best overall response: Progression disease", "setting": "[2]; Total, N = 87", "value": "31 (35.6) n (%)"}, {"measurement": "Best overall response: Stable disease", "setting": "[2]; Total, N = 87", "value": "29 (33.3) n (%)"}, {"measurement": "Disease control rate", "setting": "[2]; Total, N = 87", "value": "53 (60.9) n (%)"}, {"measurement": "Objective response rate", "setting": "[2]; Total, N = 87", "value": "24 (27.6) n (%)"}]}]}
